Columns and labels:
pigweed = assay: Test A preemergence; type: in vivo, Amaranthus retroflexus; conditions: Amaranthus retroflexus, pre-emergence, 240 h, 0 to 100 scale (0 no effect, 100 complete control), read-out: Plant response rating, Pigweed; for pest or weed control at 125 g/ha: 125 g ai/ha; for pest or weed control at 500 g/ha: 500 g ai/ha, approx. 10 d
Procedure, shortened: (§1)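 Loam/sand soil mix; compound in non-phytotoxic solvent + surfactant. Pre: directed soil spray right after planting seed. Post: potted plants 2–10 cm, 1–2 leaf stage, sprayed with same formulation.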

corn = assay: Test A postemergence; type: in vivo, Zea mays; conditions: Zea mays, post-emergence, 240 h, 0 to 100 scale (0 no effect, 100 complete control), approx. 10 d; for Corn plant response rating (crop injury, 0 = no effect, 100 = complete kill) at 125 g/ha: 125 g ai/ha; for Corn plant response rating (crop injury, 0 = no effect, 100 = complete kill) at 500 g/ha: 500 g ai/ha
Procedure, shortened: as §1

barnyardgrass = assay: Test A postemergence; type: in vivo, Echinochloa crus-galli; conditions: Echinochloa crus-galli, post-emergence, 240 h, 0 to 100 scale (0 no effect, 100 complete control), approx. 10 d, read-out: Plant response rating, Barnyardgrass; for pest or weed control at 125 g/ha: 125 g ai/ha; for pest or weed control at 500 g/ha: 500 g ai/ha
Procedure, shortened: as §1

foxtail, giant = assay: Test A preemergence; type: in vivo, Setaria faberii; conditions: Setaria faberi, pre-emergence, 240 h, 0 to 100 scale (0 no effect, 100 complete control), read-out: Plant response rating, Foxtail, Giant; for pest or weed control at 125 g/ha: 125 g ai/ha; for pest or weed control at 500 g/ha: 500 g ai/ha, approx. 10 d
Procedure, shortened: as §1

sedge, umbrella = assay: Test B flooded paddy test; type: in vivo, Cyperus difformis; conditions: Cyperus difformis, 360 h, 125 g ai/ha, applied to paddy water at 2-leaf stage, visual rating after 13 to 15 d, scale 0 (no effect) to 100 (complete control), read-out: Plant response rating, Sedge, Umbrella, Flood
Procedure, shortened: (§2)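 Pots were flooded to 3 cm above the soil at treatment, and compounds were applied directly into the paddy water. That depth was held throughout. After 13 to 15 d in a greenhouse, plants were rated visually against untreated controls.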

ducksalad = assay: Test B flooded paddy test; type: in vivo, Heteranthera limosa; conditions: Heteranthera limosa, 360 h, 125 g ai/ha, applied to paddy water at 2-leaf stage, visual rating after 13 to 15 d, scale 0 (no effect) to 100 (complete control), read-out: Plant response rating, Ducksalad, Flood
Procedure, shortened: as §2

rice = assay: Test B flooded paddy test; type: in vivo, Oryza sativa; conditions: Oryza sativa, 360 h, 125 g ai/ha, applied to paddy water at 2-leaf stage, visual rating after 13 to 15 d, scale 0 (no effect) to 100 (complete control), read-out: Plant response rating, Rice, Flood
Procedure, shortened: as §2

Compound | pest or weed control at 125 g/ha (pigweed) [%] | pest or weed control at 500 g/ha (pigweed) [%] | Corn plant response rating (crop injury, 0 = no effect, 100 = complete kill) at 125 g/ha (corn) [%] | Corn plant response rating (crop injury, 0 = no effect, 100 = complete kill) at 500 g/ha (corn) [%] | pest or weed control at 125 g/ha (barnyardgrass) [%] | pest or weed control at 500 g/ha (barnyardgrass) [%] | pest or weed control at 125 g/ha (foxtail, giant) [%] | pest or weed control at 500 g/ha (foxtail, giant) [%] | pest or weed control at 125 g/ha (sedge, umbrella) [%] | pest or weed control at 125 g/ha (ducksalad) [%] | plant injury at 125 g/ha (rice) [%]
Cn1nc(-c2ccc(F)cc2)nc1Oc1cccc(C(F)(F)F)c1 [Compound 5, 3-(4-fluorophenyl)-1-methyl-5-[3-(trifluoromethyl)phenoxy]-1H-1,2,4-triazole] | 40 | 50 | 10 | 20 | 10 | 30 | 60 | 90 | – | – | –
Cn1nc(-c2ccc(F)cc2)nc1C(O)c1ccnc(C(F)(F)F)c1 (stereo not drawn) [Compound 14, α-[3-(4-fluorophenyl)-1-methyl-1H-1,2,4-triazol-5-yl]-2-(trifluoromethyl)-4-pyridinemethanol] | 90 | 100 | 10 | 20 | 10 | 20 | 30 | 90 | 0 | 0 | 0
CCn1nc(-c2ccc(F)cc2)nc1C(O)c1ccnc(C(F)(F)F)c1 (stereo not drawn) [Compound 15, α-[1-Ethyl-3-(4-fluorophenyl)-1H-1,2,4-triazol-5-yl]-2-(trifluoromethyl)-4-pyridinemethanol] | 0 | 0 | 0 | 10 | 0 | 10 | 0 | 20 | 0 | 0 | 0
